Several values for one entry are separate records, joined by “and”; a condition that tells them apart may be missing. Equal entries are not always repeated. Where two headings read alike, the source gives them in different places.
Assays:
[1] = target: T1, 11β-hydroxylase (Rattus norvegicus, UniProt P15393); assay type: binding; conditions: for Hill coefficient for inhibition of specific 3H-etomidate binding / IC50: 2 nM 3H-etomidate; for Hill coefficient for inhibition of specific 3H-etomidate binding: equation 2; for IC50: 0.07 mg/ml protein; for IC50 higher than that of etomidate: ratio of IC50s for 3H-etomidate binding
T1 sequence (P15393 25-499): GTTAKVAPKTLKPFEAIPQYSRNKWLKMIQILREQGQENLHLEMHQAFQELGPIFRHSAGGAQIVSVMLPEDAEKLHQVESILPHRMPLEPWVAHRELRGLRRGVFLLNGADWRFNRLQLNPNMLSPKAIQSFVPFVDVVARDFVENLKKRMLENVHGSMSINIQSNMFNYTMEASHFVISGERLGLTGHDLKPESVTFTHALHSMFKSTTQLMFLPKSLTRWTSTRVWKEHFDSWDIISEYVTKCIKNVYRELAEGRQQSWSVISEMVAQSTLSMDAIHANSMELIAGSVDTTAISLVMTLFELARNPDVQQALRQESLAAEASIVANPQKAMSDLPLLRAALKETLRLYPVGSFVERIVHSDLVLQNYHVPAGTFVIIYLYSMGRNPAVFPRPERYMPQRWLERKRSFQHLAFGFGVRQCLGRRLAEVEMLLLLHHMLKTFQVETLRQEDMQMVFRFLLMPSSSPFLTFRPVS

[2] = after 2-hr infusion of parent drug in dogs; cited from earlier work
[3] = target: 11β-hydroxylase; conditions: estimated by Zolle et al.; cited from earlier work
[4] = target: T1, 11β-hydroxylase; assay type: binding
[5] = tested on: rats; conditions: in rats; cited from earlier work
[6] = tested on: rat adrenocortical cells; conditions: read-out: IC50 for inhibiting corticosterone synthesis; cited from earlier work
[7] = tested on: H295R adrenocortical cells; conditions: cited from earlier work
[8] = read-out: half-inhibitory concentration (IC50) for specific 3H-etomidate binding
[9] = half-inhibitory concentration (IC50) for specific 3H-etomidate binding

Compound	Hill coefficient for inhibition of specific 3H-etomidate binding [1]	IC50 [1, 8]	IC50 [1, 9]	further results
C[C@H](c1ccccc1)n1cncc1C(=O)O [etomidate-CA]	−0.32	1100 µM		maximal metabolite concentration [2]: 1680 ng/ml and 7.8 μM
COC(=O)c1cncn1C(C)c1ccc(I)cc1 (centres unmarked)				Kd [3]: 0.0116 ± 0.0025 µM
CCOC(=O)c1cncn1[C@H](C)c1ccccc1 [etomidate, reference compound]	−0.82			Kd [4]: 0.021 µM; maximum concentration of binding sites (Bmax), homologous competition ([4]; 2 nM 3H-etomidate vs cold etomidate, equation 1): 11,700 CPM; hypnotic potency [5]: 0.53 ± 0.17 mg/kg
CC(C)c1cccc(C(C)C)c1O [propofol, reference compound]			> 100 µM	
CNC1(c2ccccc2Cl)CCCCC1=O (centres unmarked) [ketamine, reference compound]	−0.23		≥ 50 µM and 79 µM	
Cc1cccc([C@H](C)c2cnc[nH]2)c1C [dexmedetomidine, reference compound]	−0.33		2.2 µM	IC50 [6]: 1 µM
CCOC(=O)c1cccn1[C@H](C)c1ccccc1 [carboetomidate]	−0.27	≥ 50 µM and 50 µM		IC50 higher than that of etomidate [1]: 1900 fold; IC50 for suppressing in vitro cortisol synthesis higher than etomidate ([7]; H295R adrenocortical cells): 2000 fold; potency at inhibiting cortisol synthesis relative to etomidate ([7]; adrenocortical cell line): three orders of magnitude less potent than etomidate
cyclopropyl methoxycarbonyl metomidate [CPMM]	−0.55	0.143 µM		IC50 higher than that of etomidate [1]: 5.5 fold; hypnotic potency [5]: 0.69 ± 0.04 mg/kg

Source: publication PMC5069162 (Anesthesiology, 2016)
